Test results published in ChEMBL document CHEMBL3868619, “Synthesis and biological assessment of novel N-(hydroxy/methoxy)alkyl β-enaminone curcuminoids” (Bioorg Med Chem Lett, 2016).
In brackets after ≈: the same amount, converted by molar mass.

Experiments:
[1] = Antioxidant activity assessed as DPPH radical scavenging activity after 30 mins by spectrophotometric analysis; type: functional
[2] = Solubility of the compound in dimethylformamide; type: physicochemical
[3] = Cytotoxicity against human EAhy926 cells assessed as decrease in cell viability after 48 hrs by MTT assay; type: toxicity, cell-based, EA.hy 926; settings: EA.hy926 cells
HepG2 [4] = assay: Induction of ROS generation in human HepG2 cells at 10 uM using DCFH-DA by fluorescence assay relative to control; type: functional
EA.hy 926 [5] = assay: Induction of ROS generation in human EAhy926 cells at 1 uM using DCFH-DA by fluorescence assay relative to control; type: functional
[6] = Induction of ROS generation in CHOK1 cells at 1 uM using DCFH-DA by fluorescence assay relative to control; type: cell-based, Cricetulus griseus; settings: chinese hamster, cho-k1, 1 µM
[7] = Solubility of the compound in acetone; type: physicochemical
Caco-2 [8] = assay: Induction of ROS generation in human Caco2 cells at 10 uM using DCFH-DA by fluorescence assay relative to control; type: functional
[9] = Cytotoxicity against human Caco2 cells assessed as decrease in cell viability after 48 hrs by MTT assay; type: functional, cell-based; settings: Caco-2, 48 h
[10] = Solubility of the compound in methanol; type: physicochemical
[11] = Chemical stability of the compound sodium phosphate buffer at pH 6.8 after 24 hrs by LC-MS analysis; type: physicochemical; settings: pH 6.8, 24 h
[12] = Cytotoxicity against CHOK1 cells assessed as decrease in cell viability after 48 hrs by MTT assay; type: toxicity, cell-based, Cricetulus griseus; settings: Chinese hamster, CHO-K1 cells
[13] = Aqueous solubility of the compound in sodium phosphate buffer at pH 6.8 after 90 mins by shake flask method; type: physicochemical
HepG2 [14] = assay: Induction of ROS generation in human HepG2 cells at 1 uM using DCFH-DA by fluorescence assay relative to control; type: functional
[15] = Cytotoxicity against human HepG2 cells assessed as decrease in cell viability after 48 hrs by MTT assay; type: functional, cell-based; settings: HepG2, 48 h
HT-29 [16] = assay: Induction of ROS generation in human HT-29 cells at 1 uM using DCFH-DA by fluorescence assay relative to control; type: functional
[17] = Solubility of the compound in ethanol; type: physicochemical
EA.hy 926 [18] = assay: Induction of ROS generation in human EAhy926 cells at 10 uM using DCFH-DA by fluorescence assay relative to control; type: functional
[19] = Solubility of the compound in ethyl acetate; type: physicochemical
Caco-2 [20] = assay: Induction of ROS generation in human Caco2 cells at 1 uM using DCFH-DA by fluorescence assay relative to control; type: functional
[21] = Induction of ROS generation in CHOK1 cells at 10 uM using DCFH-DA by fluorescence assay relative to control; type: cell-based, Cricetulus griseus; settings: chinese hamster, cho-k1, 10 µM
[22] = Solubility of the compound in 2-methyl-THF; type: physicochemical
[23] = Cytotoxicity against human HT-29 cells assessed as decrease in cell viability after 48 hrs by MTT assay; type: functional, cell-based; settings: HT-29, 48 h
[24] = Aqueous solubility of the compound in sodium phosphate buffer at pH 6.8 after 24 hrs by shake flask method; type: physicochemical
HT-29 [25] = assay: Induction of ROS generation in human HT-29 cells at 10 uM using DCFH-DA by fluorescence assay relative to control; type: functional
[26] = Solubility of the compound in dimethyl sulfoxide; type: physicochemical

SMILES	EC50 [1]	solubility [2]	IC50 at 48 h [3]	Activity (HepG2 [4])	Activity (EA.hy 926 [5])	Activity [6]	Activity (Caco-2 [8])	IC50 [9]	Stability [11]	IC50 at 48 h [12]	solubility thermodynamic at 1.5 h [13]	Activity (HepG2 [14])	IC50 [15]	Activity (HT-29 [16])	Activity (EA.hy 926 [18])	Activity (Caco-2 [20])	Activity [21]	IC50 [23]	solubility thermodynamic at 24 h [24]	Activity (HT-29 [25])	other results
Cc1c(C)c2c(c(C)c1O)CCC(C)(C(=O)O)O2 (stereo not given) [TROLOX]	29.6 µM	–	–	–	–	–	–	–	–	–	–	–	–	–	–	–	–	–	–	–	–
COCCNC(=C\C(=O)/C=C/c1ccc(O)cc1)/C=C/c1ccc(O)cc1	> 200 µM	Soluble	45.1 µM	77.9%	130.3%	82.5%	89.7%	28 µM	Stable	34.9 µM	37.5 µM (≈ 13.7 µg/mL)	76.4%	63.3 µM	97%	134.2%	94.9%	75.1%	57.4 µM	46.1 µM (≈ 16.8 µg/mL)	96.8%	solubility [7]: Insoluble; solubility [10]: Soluble; solubility [17]: Soluble; solubility [19]: Insoluble; solubility [22]: Insoluble; solubility [26]: Soluble
COc1cc(/C=C/C(=O)/C=C(/C=C/c2ccc(O)c(OC)c2)NCCO)ccc1O	28.3 µM	Soluble	> 100 µM	91.2%	113.3%	93.5%	96.6%	87.2 µM	Stable	87.5 µM	8.14 µM (≈ 3.35 µg/mL)	86.3%	> 100 µM	95.8%	102.4%	103.4%	90.9%	> 100 µM	11.8 µM (≈ 4.85 µg/mL)	102.7%	solubility [7]: Insoluble; solubility [10]: Soluble; solubility [17]: Soluble; solubility [19]: Insoluble; solubility [22]: Insoluble; solubility [26]: Soluble
COCCCN1C(/C=C/c2ccc(O)cc2)=CC(=O)CC1c1ccc(O)cc1 (stereo not given)	> 200 µM	–	> 100 µM	96.2%	116.4%	97.8%	99.4%	> 100 µM	Stable	> 100 µM	25.8 µM (≈ 9.8 µg/mL)	93.2%	> 100 µM	90.5%	118.6%	99%	91.7%	> 100 µM	38.8 µM (≈ 14.7 µg/mL)	74.7%	–
O=C(/C=C/c1ccc(O)cc1)CC(=O)/C=C/c1ccc(O)cc1 [BISDEMETHOXYCURCUMIN]	> 200 µM	–	54.3 µM	69.4%	95.8%	104.6%	88.8%	> 100 µM	Stable	91.4 µM	3.18 µM (≈ 0.98 µg/mL)	88.8%	> 100 µM	101.1%	104.6%	100.1%	107.9%	> 100 µM	4.3 µM (≈ 1.33 µg/mL)	95.4%	–
COc1cc(/C=C/C(=O)/C=C(/C=C/c2ccc(O)c(OC)c2)NCCCO)ccc1O	27.6 µM	Soluble	> 100 µM	101.5%	114.3%	90.4%	91%	75.7 µM	Stable	88.5 µM	25.4 µM (≈ 10.8 µg/mL)	90%	> 100 µM	98.8%	102.2%	93.4%	89.9%	> 100 µM	56.3 µM (≈ 24 µg/mL)	98.8%	solubility [7]: Insoluble; solubility [10]: Soluble; solubility [17]: Soluble; solubility [19]: Insoluble; solubility [22]: Insoluble; solubility [26]: Soluble
O=C1C=C(/C=C/c2ccc(O)cc2)N(CCO)C(c2ccc(O)cc2)C1 (stereo not given)	49.4 µM	–	> 100 µM	100.1%	106.9%	99.4%	91.5%	> 100 µM	Stable	> 100 µM	29.2 µM (≈ 10.3 µg/mL)	105.4%	> 100 µM	100.8%	101.4%	95.3%	87.6%	> 100 µM	29.9 µM (≈ 10.5 µg/mL)	98.8%	–
COCCCNC(=C\C(=O)/C=C/c1ccc(O)c(OC)c1)/C=C/c1ccc(O)c(OC)c1	29.5 µM	Soluble	> 100 µM	77.5%	91.5%	98.3%	84.8%	49.1 µM	Stable	53.7 µM	7.7 µM (≈ 3.38 µg/mL)	68.5%	> 100 µM	99.5%	89.9%	97.9%	81.2%	72.2 µM	9.66 µM (≈ 4.25 µg/mL)	95%	solubility [7]: Insoluble; solubility [10]: Soluble; solubility [17]: Soluble; solubility [19]: Insoluble; solubility [22]: Insoluble; solubility [26]: Soluble
COc1cc(/C=C/C2=CC(=O)CC(c3ccc(O)c(OC)c3)N2CCCO)ccc1O (stereo not given)	33.9 µM	–	> 100 µM	96.3%	122%	91.8%	91%	88 µM	Stable	> 100 µM	58.9 µM (≈ 25.1 µg/mL)	95.2%	> 100 µM	98.1%	123.5%	95.6%	80.3%	> 100 µM	62.9 µM (≈ 26.8 µg/mL)	96.5%	–
COc1cc(/C=C/C(=O)CC(=O)/C=C/c2ccc(O)c(OC)c2)ccc1O [CURCUMIN]	31.5 µM	–	24.6 µM	99.1%	105.5%	103.9%	94.8%	38.3 µM	Stable	42 µM	1.51 µM (≈ 0.556 µg/mL)	93.7%	72.7 µM	97.3%	98.8%	89.1%	101%	51.7 µM	1.25 µM (≈ 0.46 µg/mL)	87.3%	–
